# According to patent US10081624B2, “Heterocyclic compound” (Takeda Pharmaceutical Company Limited, priority 2014, dated 2018):
# Molecular target: T1, HDAC6 enzyme (Homo sapiens, UniProt Q9UBN7)
# T1 construct: prepared by transducing full length HDAC1 and HDAC6 genes into Sf-9 insect cells; GST; purchased SignalChem; host or cells: Sf-9 insect cells
# T1 sequence (Q9UBN7 1-1215): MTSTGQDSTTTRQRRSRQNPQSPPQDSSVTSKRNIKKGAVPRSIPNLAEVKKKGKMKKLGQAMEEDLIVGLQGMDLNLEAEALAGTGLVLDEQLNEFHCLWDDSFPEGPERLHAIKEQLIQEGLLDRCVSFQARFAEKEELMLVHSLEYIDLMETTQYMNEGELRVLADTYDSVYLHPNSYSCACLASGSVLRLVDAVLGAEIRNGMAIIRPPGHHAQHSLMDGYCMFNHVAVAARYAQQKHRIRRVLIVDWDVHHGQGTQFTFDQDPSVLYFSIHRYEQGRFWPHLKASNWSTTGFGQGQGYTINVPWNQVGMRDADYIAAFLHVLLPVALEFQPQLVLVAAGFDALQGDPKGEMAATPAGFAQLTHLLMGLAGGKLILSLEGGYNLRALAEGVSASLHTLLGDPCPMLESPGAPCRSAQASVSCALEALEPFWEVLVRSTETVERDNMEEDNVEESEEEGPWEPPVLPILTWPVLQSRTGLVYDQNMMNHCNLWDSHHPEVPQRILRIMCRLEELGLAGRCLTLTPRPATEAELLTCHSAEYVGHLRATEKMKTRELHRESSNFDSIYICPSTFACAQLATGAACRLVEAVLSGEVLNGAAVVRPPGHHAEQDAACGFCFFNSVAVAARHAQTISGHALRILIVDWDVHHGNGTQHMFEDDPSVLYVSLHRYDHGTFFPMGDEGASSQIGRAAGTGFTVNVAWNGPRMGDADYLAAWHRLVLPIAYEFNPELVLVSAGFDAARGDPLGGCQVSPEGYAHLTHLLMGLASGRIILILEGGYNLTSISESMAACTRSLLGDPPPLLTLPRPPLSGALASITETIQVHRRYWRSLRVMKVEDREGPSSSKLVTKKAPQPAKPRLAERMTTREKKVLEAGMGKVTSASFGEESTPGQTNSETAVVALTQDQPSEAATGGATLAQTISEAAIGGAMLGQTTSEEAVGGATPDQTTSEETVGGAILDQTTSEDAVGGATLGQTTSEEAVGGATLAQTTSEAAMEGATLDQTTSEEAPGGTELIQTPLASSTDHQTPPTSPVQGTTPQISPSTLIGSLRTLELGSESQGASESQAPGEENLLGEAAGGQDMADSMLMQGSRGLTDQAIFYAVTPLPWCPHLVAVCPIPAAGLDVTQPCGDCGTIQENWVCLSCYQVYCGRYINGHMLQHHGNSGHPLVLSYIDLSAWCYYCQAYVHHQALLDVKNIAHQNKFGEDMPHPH
# Assay: HDAC6 enzyme inhibitory assay (HDAC-Glo I/II Assay kit)
# Format: biochemical
# Settings: 1 μM test compound; read-out: HDAC6 inhibitory rate (%) (1 μM)
# Procedure, shortened: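 Relative activity was calculated from luminescence, with wells lacking enzyme defined as 100% inhibition. The enzymes were full-length HDAC1 or HDAC6 from Sf-9 cells, preincubated with test compound for 60 min before a 20-min substrate-developer reaction at room temperature.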
row,SMILES,inhibition at 1 µM [%]
1,"N#Cc1cccc(C(=O)N2CCOC[C@@H]2CNC(=O)c2ccc(-c3noc(C(F)(F)F)n3)cn2)c1 [Example 188, N-(((3S)-4-(3-cyanobenzoyl)morpholin-3-yl)methyl)-5-(5-(trifluoromethyl)-1,2,4-oxadiazol-3-yl)pyridine-2-carboxamide]",95
2,"O=C(NC[C@@H]1COCCN1C(=O)c1cc[nH]n1)c1ccc(-c2noc(C(F)(F)F)n2)cc1 [Example 143, N-(((3R)-4-(1H-pyrazol-3-ylcarbonyl)morpholin-3-yl)methyl)-4-(5-(trifluoromethyl)-1,2,4-oxadiazol-3-yl)benzamide]",93
3,"O=C(NC[C@H]1COCCN1C(=O)C1CCCO1)c1ccc(-c2noc(C(F)(F)F)n2)cc1 (stereo partly drawn) [Example 78, N-(((3S)-4-(tetrahydrofuran-2-ylcarbonyl)morpholin-3-yl)methyl)-4-(5-(trifluoromethyl)-1,2,4-oxadiazol-3-yl)benzamide]",88
4,"Cn1nccc1C(=O)N1CCOCC1CNC(=O)c1ccc(-c2noc(C(F)(F)F)n2)s1 (stereo not drawn) [Example 229, N-((4-((1-methyl-1H-pyrazol-5-yl)carbonyl)morpholin-3-yl)methyl)-5-(5-(trifluoromethyl)-1,2,4-oxadiazol-3-yl)thiophene-2-carboxamide]",97
5,"Cc1cc(C(=O)N2CCOCC2CNC(=O)c2ccc(-c3noc(C(F)(F)F)n3)s2)ccn1 (stereo not drawn) [Example 227, N-((4-(2-methylisonicotinoyl)morpholin-3-yl)methyl)-5-(5-(trifluoromethyl)-1,2,4-oxadiazol-3-yl)thiophene-2-carboxamide]",91
6,"Cn1cc(C(=O)N2CCOC[C@H]2CNC(=O)c2ccc(-c3noc(C(F)(F)F)n3)cc2)cn1 [Example 138, N-(((3R)-4-((1-methyl-1H-pyrazol-4-yl)carbonyl)morpholin-3-yl)methyl)-4-(5-(trifluoromethyl)-1,2,4-oxadiazol-3-yl)benzamide]",85
7,"O=C(NCC1Cc2ccccc2N1C(=O)c1cc(Cl)cc(Cl)c1)c1ccc(-c2noc(C(F)(F)F)n2)cc1 (stereo not drawn) [Example 168, N-((1-(3,5-dichlorobenzoyl)-2,3-dihydro-1H-indol-2-yl)methyl)-4-(5-(trifluoromethyl)-1,2,4-oxadiazol-3-yl)benzamide]",70
8,"Cc1cc(C(=O)N2CCOC[C@@H]2CNC(=O)c2ccc(-c3noc(C(F)(F)F)n3)cc2)on1 [Example 62, N-(((3S)-4-((3-methyl-1,2-oxazol-5-yl)carbonyl)morpholin-3-yl)methyl)-4-(5-(trifluoromethyl)-1,2,4-oxadiazol-3-yl)benzamide]",93
9,"O=C(NCC1COCCN1C(=O)c1ccno1)c1ccc(-c2noc(C(F)(F)F)n2)s1 (stereo not drawn) [Example 239, N-((4-(1,2-oxazol-5-ylcarbonyl)morpholin-3-yl)methyl)-5-(5-(trifluoromethyl)-1,2,4-oxadiazol-3-yl)thiophene-2-carboxamide]",97
10,"O=C(NCC1Cc2ccccc2CN1C(=O)C1CC1)c1ccc(-c2noc(C(F)(F)F)n2)cc1 (stereo not drawn) [Example 174, N-((2-(cyclopropylcarbonyl)-1,2,3,4-tetrahydroisoquinolin-3-yl)methyl)-4-(5-(trifluoromethyl)-1,2,4-oxadiazol-3-yl)benzamide]",94
11,"O=C(NC[C@H]1COCCN1C(=O)C1CC1)c1ccc(-c2noc(C(F)(F)F)n2)cc1 [Example 75, N-(((3S)-4-(cyclopropylcarbonyl)morpholin-3-yl)methyl)-4-(5-(trifluoromethyl)-1,2,4-oxadiazol-3-yl)benzamide]",92
12,"N#Cc1ccc(C(=O)N2CCOCC2CNC(=O)c2ccc(-c3noc(C(F)(F)F)n3)cc2)cc1 (stereo in doubt) [Example 117, N-(((3R)-4-(4-cyanobenzoyl)morpholin-3-yl)methyl)-4-(5-(trifluoromethyl)-1,2,4-oxadiazol-3-yl)benzamide]",93
13,"Cc1cc(C(=O)N2CCOC[C@H]2CNC(=O)c2ccc(-c3noc(C(F)(F)F)n3)cc2)n(C)n1 [Example 135, N-(((3R)-4-((1,3-dimethyl-1H-pyrazol-5-yl)carbonyl)morpholin-3-yl)methyl)-4-(5-(trifluoromethyl)-1,2,4-oxadiazol-3-yl)benzamide]",91
14,"O=C(NC[C@H]1COCCN1C(=O)c1cc2ncccn2n1)c1ccc(-c2noc(C(F)(F)F)n2)cc1 [Example 54, N-(((3S)-4-(pyrazolo[1,5-a]pyrimidin-2-ylcarbonyl)morpholin-3-yl)methyl)-4-(5-(trifluoromethyl)-1,2,4-oxadiazol-3-yl)benzamide]",95
15,"O=C(NC[C@H]1COCCN1C(=O)COc1ccccc1)c1ccc(-c2noc(C(F)(F)F)n2)cc1 [Example 58, N-(((3S)-4-(phenoxyacetyl)morpholin-3-yl)methyl)-4-(5-(trifluoromethyl)-1,2,4-oxadiazol-3-yl)benzamide]",93
16,"O=C(NCC1Cc2ccccc2CN1C(=O)c1cc(Cl)cc(Cl)c1)c1ccc(-c2noc(C(F)(F)F)n2)cc1 (stereo not drawn) [Example 176, N-((2-(3,5-dichlorobenzoyl)-1,2,3,4-tetrahydroisoquinolin-3-yl)methyl)-4-(5-(trifluoromethyl)-1,2,4-oxadiazol-3-yl)benzamide]",82
17,"Cc1nnsc1C(=O)N1CCOC[C@H]1CNC(=O)c1ccc(-c2noc(C(F)(F)F)n2)cc1 [Example 140, N-(((3R)-4-((4-methyl-1,2,3-thiadiazol-5-yl)carbonyl)morpholin-3-yl)methyl)-4-(5-(trifluoromethyl)-1,2,4-oxadiazol-3-yl)benzamide]",92
18,"O=C(NCC1COCCN1C(=O)c1cccnc1)c1ccc(-c2noc(C(F)(F)F)n2)s1 (stereo not drawn) [Example 225, N-((4-(pyridin-3-ylcarbonyl)morpholin-3-yl)methyl)-5-(5-(trifluoromethyl)-1,2,4-oxadiazol-3-yl)thiophene-2-carboxamide]",92
19,"O=C(NC[C@H]1COCCN1C(=O)c1cccc(F)c1)c1ccc(-c2noc(C(F)(F)F)n2)cn1 [Example 185, N-(((3S)-4-(3-fluorobenzoyl)morpholin-3-yl)methyl)-5-(5-(trifluoromethyl)-1,2,4-oxadiazol-3-yl)pyridine-2-carboxamide]",97
20,"O=C(NC[C@H]1COCCN1C(=O)c1ccncc1)c1ccc(-c2noc(C(F)(F)F)n2)cn1 [Example 191, N-(((3S)-4-isonicotinoylmorpholin-3-yl)methyl)-5-(5-(trifluoromethyl)-1,2,4-oxadiazol-3-yl)pyridine-2-carboxamide]",96
21,"N#CC1(C(=O)N2CCOC[C@H]2CNC(=O)c2ccc(-c3noc(C(F)(F)F)n3)cc2)CC1 [Example 127, N-(((3R)-4-((1-cyanocyclopropyl)carbonyl)morpholin-3-yl)methyl)-4-(5-(trifluoromethyl)-1,2,4-oxadiazol-3-yl)benzamide]",90
22,"Cc1nn(C)c(C)c1C(=O)N1CCOC[C@H]1CNC(=O)c1ccc(-c2noc(C(F)(F)F)n2)cc1 [Example 139, 4-(5-(trifluoromethyl)-1,2,4-oxadiazol-3-yl)-N-(((3R)-4-((1,3,5-trimethyl-1H-pyrazol-4-yl)carbonyl)morpholin-3-yl)methyl)benzamide]",63
23,"N#Cc1cc(F)cc(C(=O)N2CCOC[C@@H]2CNC(=O)c2ccc(-c3noc(C(F)(F)F)n3)cn2)c1 [Example 189, N-(((3S)-4-(3-cyano-5-fluorobenzoyl)morpholin-3-yl)methyl)-5-(5-(trifluoromethyl)-1,2,4-oxadiazol-3-yl)pyridine-2-carboxamide]",95
24,"Cn1nc(C(F)(F)F)cc1C(=O)N1CCOC[C@H]1CNC(=O)c1ccc(-c2noc(C(F)(F)F)n2)cc1 [Example 136, N-(((3R)-4-((1-methyl-3-(trifluoromethyl)-1H-pyrazol-5-yl)carbonyl)morpholin-3-yl)methyl)-4-(5-(trifluoromethyl)-1,2,4-oxadiazol-3-yl)benzamide]",92
